Source: patent US20100136598A1, “NOVEL MESENCHYMAL PROGENITOR CELLS DERIVED FROM HUMAN BLASTOCYST-DERIVED STEM CELLS” (priority 2007, published 2010)
Like-named read-outs stand apart in the source and are kept apart here.

Tests used:
hBS-MP cells [1] = system: hBS-MP cells
Experimental: hBS cells were dissociated into small cell aggregates and seeded into 96-well plates (Nunc, Kamstrupvej, Denmark) in 100 μl Test medium containing Knock Out DMEM supplemented with 20% Foetal bovine Serum (FBS), 1% penicillin-streptomycin, 1% Glutamax, 0.5 mmol/l β-mercaptoethanol and 1% non-essential amino acids (all Invitrogen). hBS-MP cells and hFF cells were dissociated into single cells and seeded into 96-well plates in 100 μl test medium.
After 24 hours the cytotoxicity test was started by adding 100 μl toxicity solution to the test wells that had twice the concentration as the required end concentration (day 0).

hBS cells = experiment: Cytotoxicity test in 96-well plates, 10 days (ATP content / Resazurin); conditions: for Ratios between the IC50 values measured using the Resazurin assay: hBS cells (reference = 1), day 10
hBS-MP cells [2] = experiment: as above; conditions: for sensitivity of hBS cells and hBS-MP cells compared to hFF cells (comparison of IC50 values): hBS and hBS-MP cells versus hFF cells; for Ratios between the IC50 values measured using the Resazurin assay: hBS-MP cells relative to hBS cells, day 10
hFF cells = experiment: as above; conditions: for Ratios between the IC50 values measured using the Resazurin assay: hFF cells relative to hBS cells, day 10

SMILES	sensitivity of hBS cells and progenitor cells compared to hFF (dose-response curve) (hBS-MP cells [1])	Ratios between the IC50 values measured using the Resazurin assay (hBS cells)	sensitivity of hBS cells and hBS-MP cells compared to hFF cells (comparison of IC50 values) (hBS-MP cells [2])	Ratios between the IC50 values measured using the Resazurin assay (hBS-MP cells [2])	Ratios between the IC50 values measured using the Resazurin assay (hFF cells)	sensitivity of hBS cells and hBS-MP cells compared to hFF cells (comparison of IC50 values) (hBS-MP cells [1])	toxic reaction (hBS cells; hBS cells, data not shown)	toxic reaction (hBS-MP cells [2]; hBS-MP cells, data not shown)	toxic reaction (hFF cells; hFF cells, data not shown)
CC1=C(/C=C/C(C)=C/C=C/C(C)=C/C(=O)O)C(C)(C)CCC1 [ATRA, all-trans-retinoic acid]	higher sensitivity	1	much more sensitive	1	2				
O=c1[nH]cc(F)c(=O)[nH]1 [5-FU, 5-fluoro-uracil]		1		3	7	much more sensitive			
O=C1NS(=O)(=O)c2ccccc21.[Na] [saccharin, sodium saccharin]							no toxic reaction	no toxic reaction	no toxic reaction
CC1=C(/C=C/C(C)=C/C=C/C(C)=C\C(=O)O)C(C)(C)CCC1 [13CRA, 13-cis-retinoic acid]	higher sensitivity	1	much more sensitive	4	10				
